Measured values as given in patent publication US9198909B1, “Materials and methods for inhibiting mamalian S-nitrosoglutathione reductase” (Indiana University Research and Technology Corporation, priority 2007, dated 2015).

Assays:
RAW 264.7 cells [1] = experiment: Nitroso species accumulation in RAW 264.7 cells (triiodide chemiluminescence); type: cell-based, rat
Experimental: Referring now to FIG. 3, briefly, RAW 264.7 cells were incubated with 500 μM GSNO alone (γ) or in presence of 33 μM Compound 6 (◯) or 7 (Δ) or 8 (▪). At indicated times or at 4 hr (in case of B), the cells were lysed and the lysate was analyzed for protein and nitroso species concentration by Bradford and chemiluminescence assay, respectively. For details, see Materials and methods. Data represents mean±SE (n=3−12).
RAW 264.7 cells were cultured in DMEM medium supplemented with 10% FBS, 200 U/ml of penicillin and 200 μg/mL of streptomycin. The cells were incubated at 37° C. in an atmosphere containing 5% CO2 and 95% air. For the experiments, 1-2×10^6 cells were plated in six-well plates a day before the experiment. On the day of the assay the medium was replaced with 3 ml of fresh medium and the cells were treated with compounds for a predetermined length of time. Following the incubation period, the cells were washed three times with PBS and scraped off the plate in 250 μl of lysis buffer (50 mM potassium phosphate pH 7.0 containing 50 mM NEM and 1 mM EDTA). Cells were lysed by sonication using a micro tip probe (three pulses of 30% duty cycle; 2 output control on a Fisher Sonicator). Cell debris was pelleted by centrifugation (10 min at 16,000 g) and the cell lysate was analyzed for protein concentration using the Bio-Rad dye-binding protein assay. The concentration of nitroso compounds in the cell lysate was determined using the triiodide based chemiluminescence method using a Sievers 280 nitric oxide analyzer. Briefly, cell lysates were treated with 15% v/v of a sulfanilamide solution (5% w/v in 0.2 M HCl) and kept at room temperature for 5 min to remove nitrite. The triodide mixture was prepared fresh every day as described earlier and kept at 60° C. in the reaction vessel. The concentration of nitroso species was derived from a standard curve generated using GSNO. For determining the amount of the small size nitroso compounds in the cell lysate, a 5 kDa-cutoff Amicon ultra filtration unit was used according to the supplier's instructions. The amount of s-nitrosothiols in the cell lysate was determined by treating initially passing the cell lysate through a microspin column and treating the eluate with 5 mM HgCl2 before determining the nitroso compound concentration using chemiluminescence. For some experiments the cells were pretreated with the compounds for 16 hours prior to the day of experiment.

RAW 264.7 cells [2] = experiment: s-Nitrosothiol accumulation in RAW 264.7 cells, biotin switch assay; type: cell-based, rat
Experimental: Referring now to FIG. 4, RAW 264.7 cells were cultured in DMEM containing 10% heat-inactivated serum. Cells were treated with 33 μM of Compound 8 for 0, 2, 4, 8, or 24 h alone or in combination with 1 mM NAME for 4 h (lane 4+N). At indicated times, the cells were quenched and the lysate was analyzed for s-nitrosothiol content by the biotin switch assay.
RAW 264.7 cells were cultured in 10% heat-inactivated serum containing DMEM. Cells were treated with 33 micromolar compound 8 for varied lengths of time alone or in combination with 1 mM NAME for 4 h (4+N). […] Briefly, free sulfydryls in ˜200 μg of cell lysate were blocked with 20 mM MMTS in 1 ml of HEN buffer (250 mM HEPES pH 7.7 containing 1 mM EDTA and 0.1 mM Neocupronine) containing 2% SDS at 50° C. for 20 min. Free MMTS was removed by gel-filtration spin columns and the blocked proteins were labeled with 1 mM Biotin-HPDP (Pierce) in presence or absence of 30 mM ascorbate and 2 μM CuCl for 2.5 hours.

RAW 264.7 cells [3] = experiment: cGMP accumulation in RAW 264.7 cells; type: cell-based, rat; conditions: 50 μM GSNO, 10 minutes
Experimental: cGMP plays key roles in vascular biology. To test whether inhibition of GSNOR increases cGMP production, RAW 264.7 cells were incubated with 50 μM GSNO±, both with and without compound 8, one of the subject GSNOR inhibitors of this invention. Next the amount of cGMP accumulation after 10 minutes was measured. Referring now to FIG. 6, GSNO activates soluble Guanylate Cyclase as previously described (Mayer et al J Biol Chem, Vol. 273, Issue 6, 3264-3270, Feb. 6, 1998). Compound 8 (GSNORi in the figure) potentiates the effect of GSNO by 2.5 fold.
Referring now to FIG. 6, RAW 264.7 cells were incubated with 50 μM GSNO±compound 8 the subject GSNOR inhibitor of this invention and then measured the amount of cGMP accumulation after 10 minutes. As shown in the figure GSNO activates soluble Guanylate Cyclase as previously described (Mayer et al J Biol Chem, Vol. 273, Issue 6, 3264-3270, Feb. 6, 1998). One mechanism by which compound 8 exerts its biochemical effects is due to its inhibition of GSNOR, which then potentiates the effects of GSNO on cGMP production resulting in higher cGMP levels.

GSNOR = GSNOR (Homo sapiens, UniProt P11766); experiment: Dead-end inhibition studies of GSNOR; type: biochemical; design: made in house; host or cells: E. coli; conditions: pH 7.5, 25° C., GSNO held at 10 μM
Experimental: Referring now to Table 3, inhibition experiments were performed at 25° C. in 50 mM potassium phosphate (pH 7.5) including 0.1 mM EDTA. A minimum of five concentrations of the varied substrate and three inhibitor concentrations were used for each experiment. NADH and GSNO concentrations were held at 15 or 10 μM, respectively when present as a constant substrate in the assay. The Kis and Kii values are respectively the slope and intercept inhibition constants and are listed along with their associated standard errors. All data were fit to a competitive (C), noncompetitive (NC), or uncompetitive (UC) inhibition models. The type of inhibition shown in the table represents the best fit of the data to the given model as judged from F statistics analysis. […] The dissociation constant was measured at 25° C. in 50 mM potassium phosphate pH 7.5. Each KD value is an average of three independent experiments and is shown with the associated standard error.
Inhibition experiments with the GSNOR inhibitors were conducted at 25° C. in 3 ml of 50 mM potassium phosphate (pH 7.5) containing 0.1 mM EDTA. […] A minimum of three inhibitor concentrations were used in these assays and the rate of NADH and GSNO consumption was determined spectrophotometrically by following change in absorbance at 340 nm. […]

GSNOR, sequence (P11766 2-374 limits assumed): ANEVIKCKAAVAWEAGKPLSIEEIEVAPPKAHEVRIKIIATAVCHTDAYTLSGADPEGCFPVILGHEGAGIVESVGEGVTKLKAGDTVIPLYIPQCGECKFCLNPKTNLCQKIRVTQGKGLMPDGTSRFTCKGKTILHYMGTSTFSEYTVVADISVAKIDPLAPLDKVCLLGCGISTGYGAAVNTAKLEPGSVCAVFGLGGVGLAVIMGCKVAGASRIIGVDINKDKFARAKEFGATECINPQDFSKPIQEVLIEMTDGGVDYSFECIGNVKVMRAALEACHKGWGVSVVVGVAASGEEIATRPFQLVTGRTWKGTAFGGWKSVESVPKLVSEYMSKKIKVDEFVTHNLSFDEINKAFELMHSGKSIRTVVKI

type of inhibition against varied NADH (GSNOR): uncompetitive
Structure (SMILES): N#Cc1ccccc1CSc1nc2ccsc2c(=O)n1Cc1ccc(C(=O)O)cc1 [Compound 8]
nitrosylation, fold higher than Compound 7 (RAW 264.7 cells [1]; 33 μM initial concentration, 500 μM GSNO, 4 hr): 3 fold | decrease in nitrosylated species relative to amounts at 4 hours (RAW 264.7 cells [1]; exposure up to 24 hours, data not shown): 80% | time of peak effect on nitrosylation of cellular proteins (RAW 264.7 cells [2]; 33 μM): around 8 hours | time to decrease to normal nitrosylation levels (RAW 264.7 cells [2]; 33 μM): ≤ 24 h | accumulation of SNOs with simultaneous L-NAME (RAW 264.7 cells [2]; 33 μM compound 8 + 1 mM NAME, 4 h): less | nitrosylation of cellular proteins (RAW 264.7 cells [2]; 33 μM, 0-24 h): increased the nitrosylation of cellular proteins with time | potentiation of the effect of GSNO on cGMP (RAW 264.7 cells [3]): 2.5 fold
